# Results from patent US20250011719A1, “NEW METHOD FOR IMPROVING QUALITY OF PLATELETS” (SHANGHAI SYNVIDA BIOTECHNOLOGY CO. LTD., priority 2021, published 2025).
# How the values were obtained:
# [1] = tested on: human apheresis platelets; assay: Mitochondrial reactive oxygen species (Mitosox) of stored apheresis platelets; assay type: cell-based; settings: for accumulation of intracellular reactive oxygen species: N-acetylcysteine 5 mM, Mesna 50 uM, glutathione 200 uM, 7th day of storage, vs control group; for mitochondrial reactive oxygen species levels: Dorsomorphin 2HCl 1 uM, 4 uM, AICAR 0.1 uM, 0.5 uM, 4th day of storage, vs control
# Experimental: (§1) An appropriate amount of apheresis platelets was added to a 50 ml centrifuge tube (the volume should not exceed 15 ml/tube). The mouth of the 50 ml centrifuge tube was covered and fixed with a clinical platelet storage bag as a gas-permeable membrane, placed on a horizontal shaker. The speed of the shaker was determined according to the volume inside the tube, ensuring the platelets were fully shaken and fully exposed to oxygen for respiration without touching the gas-permeable membrane.
# Using the conventional method, 25 μl platelets were diluted in equal proportions, added with 0.1 μl Mitosox reagent (5 mM) and incubated in the dark at 37° C. for 30 minutes, with 200 μl buffer added to detect the fluorescence intensity; stained the adherent cells: after centrifugation at 600 g for 5 minutes to remove the supernatant, the cells were resuspended in 200 μl Mitosox working solution, incubated at 37° C. in the dark for 30 minutes, centrifuged at 600 g for 5 minutes, washed twice with PBS and added with 200 μl PBS for resuspending and detecting the cells.
# [2] = tested on: human apheresis platelets; assay: Platelet apoptosis (Annexin V flow cytometry) of stored apheresis platelets; assay type: cell-based; settings: for apoptosis ratio of platelets: N-acetylcysteine 5 mM, Mesna 50 uM, glutathione 200 uM, 7th day of storage, vs control group; for apoptosis ratio: Dorsomorphin 2HCl 1 uM, 4 uM, AICAR 0.1 uM, 0.5 uM, 4th day of storage, vs control
# Experimental: as §1
# Platelets were sampled according to conventional methods, then the concentration of platelets was diluted to 10^8/ml with Tyrodes's Buffer. 25 μl of platelets in the experimental group and control group were added to new EP tubes. Each tube was added with 5 μl of 10×Binding Buffer, 2 μl of FITC labeled Annexin V and 18 μl of Tyrodes's Buffer to a total of 50 μl in the reaction system. After incubating at room temperature in the dark for 15 minutes, 200 μl 1×Binding Buffer was added for detection on the machine, with a tube of unlabeled platelets as a negative control. The platelets labeled with Annexin V were detected within one hour after labeling and the FITC-positive cell population was the platelets in the process of apoptosis.
# [3] = tested on: human apheresis platelets; assay: Mitochondrial potential difference (JC1/TMRM flow cytometry) of stored apheresis platelets; assay type: cell-based
# Experimental: as §1
# 9.1 Changes in platelet mitochondrial potential difference were detected by JC1 fluorescent dyes: A JC1 working solution was prepared according to conventional methods. Positive control platelets were treated with CCCP to reduce mitochondrial membrane potential, that is, the positive control. Sampled platelets were diluted to 10^8/ml. 25 μl of platelets was taken and added with 25 μl of JC1 working solution. After mixed and incubated at 37° C. in the dark for 30 minutes, a 200 μl of 1×JC1 staining buffer was added for detecting the fluorescence intensity on the machine. The relative ratio of red and green fluorescence was used to represent the ratio of mitochondrial depolarization.
# The platelet sampling and dilution were as described above. 50 μl Tyrodes's Buffer and 0.1 μl TMRM stock solution were added to a 50 μl dilution solution, incubated at 37° C. in the dark for 30 minutes, with 500 μl Tyrodes's Buffer added for detection on the machine. The fluorescence intensity of TMRM will red shift according to the change of mitochondrial potential difference. The fluorescence intensity was used to represent the level of mitochondrial potential difference.
# [4] = tested on: 293T cells stably transfected with CPT2, CPT2K79Q or CPT2K79R; assay: Electron microscopy of mitochondria in CPT2 and CPT2 mutant stable transfected cell lines treated with palmitoylcarnitine; assay type: cell-based; settings: 4 hours
# Description: A plasmid of pLVX-IRES-ZsGreen1 inserted with CPT2K79R, a plasmid of pLVX-IRES-ZsGreen1 inserted with CPT2K79Q, and a plasmid of pLVX-IRES-ZsGreen1 inserted with CPT2 were synthesized by Shanghai Sunny Biotechnology Co., Ltd. Lentiviral transfection, 293T cell infection, and stably transfected cell lines were all carried out by conventional methods.
# To further verify the correlation between CPT2K79 acetylation and the accumulation of acylcarnitine, three plasmids were constructed: wild-type CPT2, CPT2K79R mutation, and CPT2K79Q mutation. These three plasmids were packaged into lentiviruses using a three-plasmid system for infecting 293T cells. The exogenous genes were integrated into the host genome, and […] stable transfected cell lines were selected through flow cytometry sorting. CPT2K79R is a CPT2 molecule with the mutation of lysine at position 79 to arginine, abolishing acetylation at position 79. CPT2K79Q is a CPT2 molecule with the mutation of lysine at position 79 to glutamine, simulating acetylation at position 79.
# After treating CPT2 and CPT2 mutant stable transfected cell lines with acylcarnitine for 4 hours, the cells were fixed. Then electron microscopy was used to observe the status and structure of mitochondria in different cell lines treated with or without palmitoylcarnitine. […] In one embodiment, there were anomalies in the morphology and arrangement of mitochondrial cristae, and the cristae became disarrayed, fragmented and blurred, with bright areas appearing in the center of the mitochondria, indicating severe damage to the mitochondrial inner membrane structure.
# mouse platelets [5] = assay: Storage of mouse platelet-rich plasma with added palmitoyl carnitine; assay type: cell-based, mice; settings: palmitoyl carnitine 2 μM and 10 μM; days 1 and 2 of storage; concentration-dependent trend
# Experimental: Blood was taken from the abdominal aorta of mice. Apyrase (in a final concentration of 1 U/ml) and PGE1 (in a final concentration of 0.1 μg/ml) that can inhibit platelet aggregation was then added with to the whole blood, mixed quickly and centrifuged (1050 rpm, room temperature, 10 minutes). After two centrifuges, the upper plasma of the experimental group was sucked out, discarded and the platelet precipitate at the bottom was retained. The plasma of wild-type mice was evenly distributed to the platelet pellets of mice in the experimental group and wild-type group. The platelets were uniformly dispersed and suspended, and then preserved according to the method of human platelets. Whole blood was obtained from wild-type rats and wild-type mice via abdominal aortic puncture, and platelet-rich plasmas (PRP) were prepared separately for rats and mice. Platelet storage experiments were conducted, with two additional experimental groups each receiving the addition of palmitoyl carnitine at different concentrations (2 μM and 10 μM). Platelet apoptosis ratio, mitochondrial ROS level and changes in mitochondrial membrane potential were measured during storage days 0-4.
# rat platelets = assay: Storage of rat platelet-rich plasma with added palmitoyl carnitine; assay type: cell-based, rats; settings: palmitoyl carnitine 2 μM and 10 μM; days 1 and 2 of storage
# Experimental: Whole blood was obtained from wild-type rats and wild-type mice via abdominal aortic puncture, and platelet-rich plasmas (PRP) were prepared separately for rats and mice. Platelet storage experiments were conducted, with two additional experimental groups each receiving the addition of palmitoyl carnitine at different concentrations (2 μM and 10 μM). Platelet apoptosis ratio, mitochondrial ROS level and changes in mitochondrial membrane potential were measured during storage days 0-4.
# stored mouse platelets = assay: Transfusion of stored mouse PRP into WT mice; assay type: in vivo; settings: mouse PRP stored in vitro 1 day with NMN 0.5 mM, NAC 5 mM, AMPKi 4 uM alone or combined; biotin-labeled, infused into WT mice; PBS control
# Experimental: Blood was taken from the abdominal aorta of mice. Apyrase (in a final concentration of 1 U/ml) and PGE1 (in a final concentration of 0.1 μg/ml) that can inhibit platelet aggregation was then added with to the whole blood, mixed quickly and centrifuged (1050 rpm, room temperature, 10 minutes). After two centrifuges, the upper plasma of the experimental group was sucked out, discarded and the platelet precipitate at the bottom was retained. The plasma of wild-type mice was evenly distributed to the platelet pellets of mice in the experimental group and wild-type group. The platelets were uniformly dispersed and suspended, and then preserved according to the method of human platelets.
# In platelet transfusions, it is undesirable for stored platelets to be rapidly cleared from circulation. To evaluate the effects of the above compounds on the quality of platelets stored in vivo, two mouse transfusion models were used. In the first model, stored human platelets were transfused into immunodeficient NCG (NOD-Prkdcem26Cd52Il2rgem 26Cd22/NjuCrl) mice. NMN+NAC+AMPKi (NMN 0.5 mM, NAC 5 mM, AMPKi 4 uM) or PBS as a control was added. Human platelet concentrates were stored for 6 days in vitro. They were then labeled with biotin and infused into NCG mice. […] However, platelet clearance was lower in the NMN+NAC+AMPKi group compared to the control group (FIG. 8B). In another group of models, mouse PRP was stored in vitro for 1 day, added with NMN, NAC, AMPK inhibitor or NMN+NAC+AMPK inhibitor (NMN 0.5 mM, NAC 5 mM, AMPKi 4 uM) or PBS as a control. They were then labeled with biotin and infused into WT mice.
# [6] = tested on: human apheresis platelets; assay: Storage quality of human apheresis platelets at room temperature; assay type: cell-based; settings: summary statement of the results of the examples; substance used individually
# Experimental: as §1
# This method can simulate the storage of clinical apheresis platelets in a laboratory environment and can be used for sampling and the sampling is completed. The collected apheresis platelet samples can be used for platelet counting, flow cytometry index detection, protein collection, platelet viability detection, ATP content detection and other purposes.
# mouse platelets [7] = assay: Mouse ITP model (anti-CD42b antibody R300); assay type: in vivo, mice; settings: intravenous, combination 1 μmol NMN, 10 μmol NAC, 8 nmol AMPKi, vs control group
# Experimental: WT mice were intravenously injected with NMN, NAC, AMPK inhibitor, or NMN+NAC+AMPK inhibitor. After 30 minutes, basal platelet counts were first determined from complete blood counts using a HEMAVET automated hematology analyzer. Mouse platelets were cleared by intravenous injection of 2 μg anti-CD42b monoclonal antibody R300 (purchased from Emfret). Orbital blood was collected at different time points to monitor platelet clearance and recovery.
# To evaluate the effects of NMN, NAC or AMPK inhibitor on platelet survival in ITP patients, an ITP mouse model was established by intravenous injection of a low dose of anti-CD42b antibody R300.
# [8] = tested on: human apheresis platelets; assay: Platelet aggregation / responsiveness to agonists of stored apheresis platelets; assay type: cell-based
# Experimental: as §1
# By conventional methods, using a platelet aggregation instrument, 300 μl of 3×10^8 platelets/ml and the required […] were added to the aggregation tube and incubated at 37° C. for 3 minutes after gentle stirring. A baseline was established and the changes of an aggregation curve were observed within 5 minutes.
# [9] = added to freshly isolated platelets, second day of platelet storage, compared to the control group
# [10] = N-acetylcysteine 5 mM, Mesna 50 uM, glutathione 200 uM, 7th day of storage
# [11] = Dorsomorphin 2HCl 1 uM, 4 uM, AICAR 0.1 uM, 0.5 uM, 4th day of storage, vs control
compound,measurement,setting,value
CCCCCCCCCCCCCCCC(=O)OC(CC(=O)[O-])C[N+](C)(C)C (centres unmarked) [palmitoylcarnitine],levels of mitochondrial reactive oxygen species,[1]; [9],higher
same,apoptosis rates,[2]; [9],higher
same,mitochondrial membrane potential,[3]; [9],lower
same,effect on the mitochondrial status,"[4]; CPT2K79Q cell line, low concentrations of palmitoylcarnitine",particularly pronounced
same,effect on the mitochondrial status,"[4]; CPT2K79R cell line, low-dose palmitoylcarnitine",little effect
same,mitochondria (electron microscopy),"[4]; three cell lines, low concentrations of palmitoylcarnitine, vs group without palmitoylcarnitine",significantly worse
same,status of mouse platelets,mouse platelets [5],effectively reduced
same,status of rat platelets,rat platelets,did not cause significant changes
CC(=O)N[C@@H](CS)C(=O)O [N-acetylcysteine],survival in vivo of stored platelets,stored mouse platelets,better than controls
same,quality of platelets,[6],significantly improved
same,accumulation of intracellular reactive oxygen species,[1],reduce
same,apoptosis ratio of platelets,[2],lower
same,platelet survival rate,mouse platelets [7],higher
same,recovery rate of platelet counts,mouse platelets [7],higher
same,mitochondrial membrane potential,[3]; [10],protected
same,platelet responsiveness to stimuli,[8]; [10],protected
O=C(NCc1ccncc1)Nc1ccc(S(=O)(=O)N2CC3CCC(C2)O3)cc1 [SBI-797812],quality of platelets,[6],significantly improve
"NC(=O)c1ccc[n+]([C@@H]2O[C@H](COP(=O)([O-])O)[C@@H](O)[C@H]2O)c1 [NMN, nicotinamide mononucleotide]",survival in vivo of stored platelets,stored mouse platelets,better than controls
same,quality of platelets,[6],significantly improved
same,platelet survival rate,mouse platelets [7],higher
same,recovery rate of platelet counts,mouse platelets [7],higher
"O=S(=O)([O-])CCS.[Na+] [Mesna, sodium 2-mercaptoethane sulfonate]",accumulation of intracellular reactive oxygen species,[1],reduce
same,apoptosis ratio of platelets,[2],lower
same,mitochondrial membrane potential,[3]; [10],protected
same,platelet responsiveness to stimuli,[8]; [10],protected
"NC(=O)c1cccnc1 [NAM, nicotinamide]",quality of platelets,[6],significantly improve
N[C@@H](CCC(=O)N[C@@H](CS)C(=O)NCC(=O)O)C(=O)O [glutathione],accumulation of intracellular reactive oxygen species,[1],reduce
same,apoptosis ratio of platelets,[2],lower
same,mitochondrial membrane potential,[3]; [10],protected
same,platelet responsiveness to stimuli,[8]; [10],protected
OC(CNc1ccccc1)Cn1c2ccc(Br)cc2c2cc(Br)ccc21 (centres unmarked) [P7C3],quality of platelets,[6],significantly improve
NC(=O)c1ncn([C@@H]2O[C@H](CO)[C@@H](O)[C@H]2O)c1N [AICAR],mitochondrial reactive oxygen species levels,[1],elevation
same,apoptosis ratio,[2],increased
same,mitochondrial membrane potential,[3]; [11],significant decrease
same,platelet responsiveness to stimuli,[8]; [11],detrimental
Cl.Cl.c1cc(-c2cnn3cc(-c4ccc(OCCN5CCCCC5)cc4)cnc23)ccn1 [Dorsomorphin 2HCl],survival in vivo of stored platelets,stored mouse platelets,better than controls
same,quality of platelets,[6],significantly improved
same,mitochondrial reactive oxygen species levels,[1],varying degrees of improvement
same,apoptosis ratio,[2],varying degrees of improvement
same,platelet survival rate,mouse platelets [7],higher
same,recovery rate of platelet counts,mouse platelets [7],higher
same,mitochondrial membrane potential,[3]; [11],varying degrees of improvement
same,platelet responsiveness to stimuli,[8]; [11],varying degrees of improvement
"NC(=O)c1ccc[n+]([C@@H]2O[C@H](CO)[C@@H](O)[C@H]2O)c1 [NR, nicotinamide riboside]",quality of platelets,[6],significantly improve
